For assay [1], the target named is recombinant human Mcl-1 (residues 171-327) / Bim interaction (Homo sapiens (Human), UniProt Q07820). Briefly: biochemical. It is filed as binding. The following applies: read-out: Mcl-1 HTRF IC50. Background: TR-FRET usually uses a lanthanide donor and a delayed reading to cut background.
In assay [2] the test system is human multiple myeloma cell line, OPM-2. Nature of the assay: Cell viability assay (OPM-2 10 FBS), CellTiter-Glo. Format: cell-based. A digest of the protocol: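 OPM-2 cells at 3000 cells/well in RPMI 1640 with 10% FBS were exposed to serially diluted compounds for 16 h at 37 °C, 5% CO2.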
Where [3] appears, read: TR-FRET, Mcl-1(171-327) / biotin-Bim (51-76).
[4] abbreviates: read-out: OPM-2 10% FBS IC50 IP, OPM-2 cells, 10% FBS, 16 h, CellTiter-Glo.
Where [5] appears, read: 0.1 nM Mcl-1(171-327), 0.05 nM biotin-Bim (51-76).
[6] abbreviates: Homo sapiens, OPM-2, 16 h, read-out: OPM-2 10% FBS IC50 IP, OPM-2 cells, 10% FBS, 16 h incubation.
Where [7] appears, read: Homo sapiens, OPM-2, 16 h, read-out: OPM-2 10% FBS IC50 IP, OPM-2 cells, 10% FBS, 16 h, CellTiter-Glo.

Like-named read-outs stand apart in the source and are kept apart here.

Chain of recombinant human Mcl-1 (residues 171-327) / Bim interaction (Q07820 171-327): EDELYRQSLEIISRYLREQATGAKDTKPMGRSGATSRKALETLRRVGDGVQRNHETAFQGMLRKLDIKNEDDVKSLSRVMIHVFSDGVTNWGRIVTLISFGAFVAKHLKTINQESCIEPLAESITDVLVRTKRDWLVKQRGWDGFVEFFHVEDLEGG

For the compound `C=CCC[C@@]1(O)/C=C/C[C@H](C)[C@@H](C)S(=O)(=O)NC(=O)c2ccc3c(c2)N(C[C@@H]2CC[C@H]21)C[C@@]1(CCCc2cc(Cl)ccc21)CO3` [Example 100157, (1S,3′R,6′R,7′R,8′E,11′S,12′R)-7′-(3-buten-1-yl)-6-chloro-7′-hydroxy-11′,12′-dimethyl-3,4-dihydro-2H,15′H-spiro[naphthalene-1,22′-[20]oxa[13]thia[1,14]diazatetracyclo [14.7.2.0~3,6~.0~19,24~]pentacosa[8,16,18,24]tetraen]-15′-one 13′,13′-dioxide], the IC50 in assay [1] (setting [3]) was determined as 4.81 nM; in assay [2] (setting [4]) it was 3210 nM.
Regarding `CO[C@]1(CN2CCN3C(=O)COC[C@@H]3C2)/C=C/C[C@H](C)[C@@H](C)S(=O)(=O)NC(=O)c2ccc3c(c2)N(C[C@@H]2CC[C@H]21)C[C@@]1(CCCc2cc(Cl)ccc21)CO3` [Example 140, (1S,3′R,6′R,7′R,8′E,11′S,12′R)-6-chloro-7′-methoxy-11′,12′-dimethyl-7′-(((9aS)-4-oxohexahydropyrazino[2,1-c][1,4]oxazin-8(1H)-yl)methyl)-3,4-dihydro-2H,15′H-spiro[naphthalene-1,22′-[20]oxa[13]thia[1,14]diazatetracyclo [14.7.2.0~3,6~.0~19,24~]pentacosa[8,16,18,24]tetraen]-15′-one 13′,13′-dioxide], the IC50 in assay [1] (setting [5]) was 0.098 nM; in assay [2] (setting [6]), 125 nM.
For `C[C@@H]1[C@@H](C)C/C=C/[C@]2(CN(Cc3cccnc3)CCO2)[C@@H]2CC[C@H]2CN2C[C@@]3(CCCc4cc(Cl)ccc43)COc3ccc(cc32)C(=O)NS1(=O)=O` [Example 137, (1S,3′R,6′R,7′R,8′E,11′S,12′R)-6-chloro-11′,12′-dimethyl-4″- (3-pyridinylmethyl)-3,4-dihydro-2H,15′H-dispiro[naphthalene-1,22′-[20]oxa[13]thia[1,14]diazatetracyclo [14.7.2.0~3,6~.0~19,24~]pentacosa[8,16,18,24]tetraene-7′,2″-[1,4]oxazinan]-15′-one 13′,13′-dioxide] the same measures were 4.74 nM and 1150 nM.
For `CO[C@@]1(CN2CCN(C)CC2)/C=C/C[C@H](C)[C@@H](C)S(=O)(=O)NC(=O)c2ccc3c(c2)N(C[C@@H]2CC[C@H]21)C[C@@]1(CCCc2cc(Cl)ccc21)CO3` [Example 196, (1S,3′R,6′R,7′S,8′E,11′S,12′R)-6-chloro-7′-methoxy-11′,12′-dimethyl-7′-((4-methyl-1-piperazinyl)methyl)-3,4-dihydro-2H,15′H-spiro[naphthalene-1,22′-[20]oxa[13]thia[1,14]diazatetracyclo [14.7.2.0~3,6~.0~19,24~]pentacosa[8,16,18,24]tetraen]-15′-one 13′,13′-dioxide], the IC50 in assay [1] (setting [5]) was determined as 0.47 nM; in assay [2] (setting [6]), 304 nM.
For `COCC[C@@H]1[C@@H](C)C/C=C/[C@](CN2CCN3CCCC[C@@H]3C2)(OC)[C@@H]2CC[C@H]2CN2C[C@@]3(CCCc4cc(Cl)ccc43)COc3ccc(cc32)C(=O)NS1(=O)=O` [Example 182, (1S,3′R,6′R,7′S,8′E,11′S,12′R)-6-chloro-7′-methoxy-12′-(2-methoxyethyl)-11′-methyl-7′-((9aR)-octahydro-2H-pyrido[1,2-a]pyrazin-2-ylmethyl)-3,4-dihydro-2H,15′H-spiro[naphthalene-1,22′-[20]oxa[13]thia[1,14]diazatetracyclo [14.7.2.0~3,6~.0~19,24~]pentacosa[8,16,18,24]tetraen]-15′-one 13′,13′-dioxide] the same measures were 0.171 nM and 88 nM.
For `C[C@@H]1[C@@H](C)C/C=C/[C@@](O)(CC2=NC(C)(C)CO2)[C@@H]2CC[C@H]2CN2C[C@@]3(CCCc4cc(Cl)ccc43)COc3ccc(cc32)C(=O)NS1(=O)=O` [Example 100346, (1S,3′R,6′R,7′S,8′E,11′S,12′R)-6-chloro-7′-((4,4-dimethyl-4,5-dihydro-1,3-oxazol-2-yl)methyl)-7′-hydroxy-11′,12′-dimethyl-3,4-dihydro-2H,15′H-spiro[naphthalene-1,22′-[20]oxa[13]thia[1,14]diazatetracyclo [14.7.2.0~3,6~.0~19,24~]pentacosa[8,16,18,24]tetraen]-15′-one 13′,13′-dioxide], the results for the IC50 in assay [1] (setting [3]) and in assay [2] (setting [7]) were 0.735 nM and 248 nM, respectively.
As for `CO[C@@]1(C)/C=C/C[C@H](C)[C@@H](CCO)S(=O)(=O)NC(=O)c2ccc3c(c2)N(C[C@@H]2CC[C@H]21)C[C@@]1(CCCc2cc(Cl)ccc21)CO3` (single isomer, unassigned) [Example 100596], the concentration for half-maximal inhibition (IC50) in assay [1] (setting [3]) came out at 0.229 nM; in assay [2] (setting [4]) it was 186 nM.
Turning to `C[C@@H]1[C@@H](C)CCC[C@@](O)(Cc2ccccn2)[C@@H]2CC[C@H]2CN2C[C@@]3(CCCc4cc(Cl)ccc43)COc3ccc(cc32)C(=O)NS1(=O)=O` [Example 100104, (1S,3′R,6′R,7′R,11′S,12′R)-6-chloro-7′-hydroxy-11′,12′-dimethyl-7′-(2-pyridinylmethyl)-3,4-dihydro-2H,15′H-spiro[naphthalene-1,22′-[20]oxa[13]thia[1,14]diazatetracyclo [14.7.2.0~3,6~.0~19,24~]pentacosa[16,18,24]trien]-15′-one 13′,13′-dioxide], the values for the half-maximal inhibitory concentration (IC50) in assay [1] (setting [3]) and in assay [2] (setting [4]) were 0.599 nM and 250 nM, respectively.
As for `CO[C@@]1(CN2CCN(CC3COC3)CC2)/C=C/C[C@H](C)[C@@H](C)S(=O)(=O)NC(=O)c2ccc3c(c2)N(C[C@@H]2CC[C@H]21)C[C@@]1(CCCc2cc(Cl)ccc21)CO3` [Example 313, (1S,3′R,6′R,7′S,8′E,11′S,12′R)-6-chloro-7′-methoxy-11′,12′-dimethyl-7′-((4-(3-oxetanylmethyl)-1-piperazinyl)methyl)-3,4-dihydro-2H,15′H-spiro[naphthalene-1,22′-[20]oxa[13]thia[1,14]diazatetracyclo [14.7.2.0~3,6~.0~19,24~]pentacosa[8,16,18,24]tetraen]-15′-one 13′,13′-dioxide], the values for the IC50 in assay [1] (setting [5]) and in assay [2] (setting [6]) were 0.225 nM and 131 nM, respectively.
On to `COC[C@]1(O)CCC[C@H](C)[C@@H](C)S(=O)(=O)NC(=O)c2ccc3c(c2)N(C[C@@H]2CC[C@H]21)C[C@@]1(CCCc2cc(Cl)ccc21)CO3` (stereo in doubt) [Example 100149, (1S,3′R,6′R,7′S,11′S,12′R)-6-chloro-7′-hydroxy-7′-(methoxymethyl)-11′,12′-dimethyl-3,4-dihydro-2H,15′H-spiro[naphthalene-1,22′-[20]oxa[13]thia[1,14]diazatetracyclo [14.7.2.0~3,6~.0~19,24~]pentacosa[16,18,24]rien]-15′-one 13′,13′-dioxide], for which the figures for the IC50 in assay [1] (setting [3]) and in assay [2] (setting [7]) were 0.214 nM and 186 nM, respectively.
For the compound `C[C@@H]1[C@@H](C)CCC[C@@]2(OCCS2)[C@@H]2CC[C@H]2CN2C[C@@]3(CCCc4cc(Cl)ccc43)COc3ccc(cc32)C(=O)NS1(=O)=O` [Example 100115, (1S,3′R,6′R,7′S,11′S,12′R)-6-chloro-11′,12′-dimethyl-3,4-dihydro-2H,15′H-dispiro[naphthalene-1,22′-[20]oxa[13]thia[1,14]diazatetracyclo [14.7.2.0~3,6~.0~19,24~]pentacosa[16,18,24]triene-7′,2″-[1,3]oxathiolan]-15′-one 13′,13′-dioxide], the IC50 in assay [1] (setting [3]) stood at 4.49 nM; in assay [2] (setting [7]), 2840 nM.
In the case of `COCCN1CCN(C[C@@]2(OC)/C=C/C[C@H](C)[C@@H](C)S(=O)(=O)NC(=O)c3ccc4c(c3)N(C[C@@H]3CC[C@H]32)C[C@@]2(CCCc3cc(Cl)ccc32)CO4)CC1=O` [Example 54, (1S,3′R,6′R,7′R,8′E,11′S,12′R)-6-chloro-7′-methoxy-7′-((4-(2-methoxyethyl)-3-oxo-1-piperazinyl)methyl)-11′,12′-dimethyl-3,4-dihydro-2H,15′H-spiro[naphthalene-1,22′-[20]oxa[13]thia[1,14]diazatetracyclo [14.7.2.0~3,6~.0~19,24~]pentacosa[8,16,18,24]tetraen]-15′-one 13′,13′-dioxide], the figures for the IC50 in assay [1] (setting [5]) and in assay [2] (setting [6]) were 0.173 nM and 129 nM, respectively.
Consider `CO[C@@]1(CN2CCN(c3cccnc3)CC2)/C=C/C[C@H](C)[C@@H](C)S(=O)(=O)NC(=O)c2ccc3c(c2)N(C[C@@H]2CC[C@H]21)C[C@@]1(CCCc2cc(Cl)ccc21)CO3` [Example 253, (1S,3′R,6′R,7′S,8′E,11′S,12′R)-6-chloro-7′-methoxy-11′,12′-dimethyl-7′-((4-(3-pyridinyl)-1-piperazinyl)methyl)-3,4-dihydro-2H,15′H-spiro[naphthalene-1,22′-[20]oxa[13]thia[1,14]diazatetracyclo [14.7.2.0~3,6~.0~19,24~]pentacosa[8,16,18,24]tetraen]-15′-one 13′,13′-dioxide], for which the IC50 in assay [1] (setting [5]) is 0.804 nM; in assay [2] (setting [6]), 887 nM.
For `CO[C@]1(CN2CCN(C3COCCOC3)CC2)/C=C/C[C@H](C)[C@@H](C)S(=O)(=O)NC(=O)c2ccc3c(c2)N(C[C@@H]2CC[C@H]21)C[C@@]1(CCCc2cc(Cl)ccc21)CO3` [Example 342, (1S,3′R,6′R,7′R,8′E,11′S,12′R)-6-chloro-7′-((4-(1,4-piperazinyl)methyl)-7′-dioxepan-6-yl)-1-methoxy-11′,12′-dimethyl-3,4-dihydro-2H,15′H-spiro[naphthalene-1,22′-[20]oxa[13]thia[1,14]diazatetracyclo [14.7.2.0~3,6~.0~19,24~]pentacosa[8,16,18,24]tetraen]-15′-one 13′,13′-dioxide] the same measures were 0.089 nM and 104 nM.

Broadly, the IC50 is the concentration at which inhibition is half-maximal.

These data come from patent US10821115B2, “Compounds that inhibit Mcl-1 protein” (priority 2017, dated 2020).
